# Data as given in ChEMBL document CHEMBL3137356, “MMV Box Cryptosporidium parvum screening set”.
# Tested on: Cryptosporidium parvum
# Experiment: MMV: Cryptosporidium parvum oocysts (Iowa Strain) were prepared for use by treatment with 10 mM HCl (37 degrees C, 10 min) followed by 2 mM sodium taurocholate in phosphate-buffered saline (PBS) with Ca2+ and Mg2+ (16 degrees C, 10 min) in order to stimulate excystation. The high-throughput screen was carried out by inoculating >90% confluent human ileocecal adenocarcinoma (HCT-8) cells (ATCC) with ~5.5 x 10^3 primed oocysts per well. Experimental compounds or DMSO (vehicle) were added three hours after infection, and cells were incubated for 48 hours.
# Type: functional
row,Structure (SMILES),Inhibition [%]
1,CN1CCN(c2ccc(Nc3c4ccccc4nc4ccccc34)cc2)CC1,7.066
2,CN(C)CCCNc1c2ccccc2nc2ccccc12,55.64
3,CCN1CCCC1CNc1[nH]cnc2c3cc(Cl)ccc3nc1-2 (centres undefined),-14.57
4,COc1ccc(-c2c(C)nn3c(N)c(C#N)cnc23)cc1OC,-20.9
5,CSC1=NC(=Nc2c(C)cccc2C)C2(CCC(C(C)(C)C)CC2)N1c1ccc(Cl)cc1 (centres undefined),-57.3
6,Cc1cc(C)cc(Nc2cc(C)nc3nc(C(F)(F)F)nn23)c1,-21.92
7,O=C(NCC(c1ccsc1)N1CCCCCC1)c1ccc(C(F)(F)F)cc1 (centres undefined),-22.24
8,COc1ccc(-c2cc3c(SCC(=O)Nc4cc(C(F)(F)F)ccc4Cl)nccn3n2)cc1,-78.4
9,Cc1ccc(-c2cc3c(SCC(=O)Nc4cc(C(F)(F)F)ccc4Cl)nccn3n2)cc1,-45.33
10,CCN(CC)CCNc1ncnc2c1[nH]c1ccc(Cl)cc12,-27.98
11,CCOC(=O)c1cnc2ccc(CC)cc2c1O,-16.47
12,CCN(CC)CCNc1ccnc2cc(Cl)ccc12,-45.62
13,CCCCCC(=O)N1c2ccccc2N=C2CC(c3ccc(OC)c(OC)c3)CC(O)=C2C1c1ccc(C(F)(F)F)cc1 (centres undefined),-9.957
14,Cc1cc(Nc2ccc3ccccc3c2)n2ncnc2n1,-10.13
15,Cc1cc(NCCN2CCCCC2)c2ccc3ccccc3c2n1,-25.58
16,COc1ccc(-n2ccnc2SCC(=O)Nc2cc(C)ccc2C)c(OC)c1,-14.53
17,CCN1CCN(Cc2ccc(NC(=O)c3cc4ccc5cccnc5c4[nH]3)cc2)CC1,-49.16
18,COc1ccc(-c2nc(NC(=O)CS(=O)(=O)c3ccc(F)cc3)sc2C)cc1,-22.95
19,O=C(O)C1Cc2c([nH]c3ccccc23)C(c2ccc(Cl)cc2Cl)N1 (centres undefined),-71.65
20,Cc1ccc(N2C(=O)C3C(C2=O)C2(c4ccccc4)C(=O)C3(c3ccccc3)C(c3ccccc3)=C2c2ccccc2)cc1 (centres undefined),-46.86
21,CCc1c(C)c(=N)c2ccccc2n1C.I,11.41
22,COc1cccc(NC(=O)[C@H](C(C)C)n2c(=O)[nH]c3ccccc3c2=O)c1,8.977
23,CCOC(=O)c1cn(CC)c2cc(N(C)CCc3ccc(OC)c(OC)c3)c(F)cc2c1=O,43.56
24,CCC(c1ccccc1)c1nn2c(-c3cccs3)nnc2s1 (centres undefined),-11.07
25,CC(C)(C)c1ccc(O)c(CNC2CCCCC2)c1,-70.4

row,Structure (SMILES),Inhibition [%]
1,O=[N+]([O-])c1ccc(C=NNc2nc3ccccc3[nH]2)cc1,-55.94
2,CCOc1cc2c(cc1OCC)C(c1cc(OC)c(O)cc1Cl)NCC2 (centres undefined),-16.38
3,CC1CN(C(=O)c2sc3ccccc3c2Cl)CC(C)O1 (centres undefined),27
4,CN(C)c1ccc(C=Cc2nc(=O)c3ccccc3o2)cc1,-61.37
5,COc1ccc(C2=C(c3ccc(OC)cc3)C3(c4ccccc4)C(=O)C2(c2ccccc2)C2C(=O)N(c4ccc(C)cc4)C(=O)C23)cc1 (centres undefined),63.25
6,CCOC(=O)c1c(NC(=O)c2ccccc2)sc2c(O)c(CN(CC)CC)ccc12,50.63
7,CCOC(=O)C1=C(c2ccccc2)N=c2sc(=Cc3cc(C)n(-c4ccc(F)cc4)c3C)c(=O)n2C1c1cccc(OC)c1OC (centres undefined),-76.69
8,CCC1(C)CC(CCNCc2ccccc2O)(c2ccc(C)cc2)CCO1 (centres undefined),-2.346
9,OC(CNC1CCCCC1)Cn1c2ccccc2c2ccccc21 (centres undefined),-24.91
10,Cc1cc(Nc2ccc(C)c(Cl)c2)n2nc(C(F)(F)F)nc2n1,4.308
11,COc1cccc(C=Cc2nc(=O)c3ccccc3o2)c1OC,44.65
12,CCCN(CCC)CC(O)COc1ccccc1C(=O)Nc1ccccc1 (centres undefined),46.62
13,Fc1ccc2[nH]c3c(NCCCN4CCOCC4)ncnc3c2c1,-0.2614
14,COc1ccc(C=C2SC(=N)N(c3ccccc3OC)C2=O)cc1,10.76
15,COc1ccc(NC(=O)C2c3ccccc3C(=O)N(CC(C)C)C2c2cccs2)cc1Cl (centres undefined),-10.67
16,CCOC(=O)c1c(C)n(-c2ccc(Cl)cc2)c2ccc(OC(=O)C=Cc3ccccc3)cc12,-77.36
17,COc1ccc2c(c1)OC(O)(C(F)(F)C(F)(F)F)CC2=O (centres undefined),33.72
18,C=CC12CCN(CC1)C(C(O)c1ccnc3ccc(OC)cc13)C2.Cl (centres undefined),1.246
19,Cc1ccc(-c2cc3nc4c(c(O)n3n2)CCCC4)cc1,2.31
20,Cc1cccc(Nc2nc(N)c3ccccc3n2)c1.Cl,39.08
21,CCn1c(CN2CCN(Cc3ccccc3)CC2)nc2cc(NC(=O)c3cccs3)ccc21,-14.21
22,COc1ccccc1CNC(=O)CCn1c(=O)[nH]c2ccccc2c1=O,3.729
23,c1ccc2cc3c(Nc4ccc(N5CCOCC5)cc4)ccnc3cc2c1,17
24,Cc1cc(C)c2c(c1)OCN(Cc1ccccc1Cl)C2,-66.49
25,COc1cc(OC)c(N(C)C(=O)c2cc3c(s2)-c2ccccc2S(=O)(=O)C3)cc1Cl,-25.68

row,Structure (SMILES),Inhibition [%]
1,COc1ccccc1NC1=C(N2CCCCC2)C(=O)c2ccccc2C1=O,-35.82
2,CCOC(=O)c1cn(CC)c2cc(N3CCCCC3)c(F)cc2c1=O,6.363
3,CCCc1cc(O)c2c3c(c(=O)oc2c1)CN(C)CC3,-49.5
4,Cc1cc(NC(=O)C2c3ccccc3C(=O)N(CC(C)C)C2c2cccs2)no1 (centres undefined),-19.27
5,Cl.Oc1ccccc1CNCC12CC3CC(CC(C3)C1)C2,-10.2
6,CNCCCNc1ccnc2cc(Cl)ccc12,-4.729
7,COc1ccccc1CNC(=O)CCn1c(=O)[nH]c2ccsc2c1=O,-10.39
8,COc1ccc(Br)cc1C1Nc2ccc3ccccc3c2C2=C1C(=O)CC(c1ccccc1)C2 (centres undefined),-67.54
9,Cc1cc(C=C2SC(=Nc3ccccc3)N(C3CCCC3)C2=O)c(C)n1-c1ccc(Cl)cc1,0.2141
10,CC1CCN(Cc2ccc(NC(=O)c3cc4ccc5cccnc5c4[nH]3)cc2)CC1,-17.38
11,CCc1ccc(Nc2cc(C)c3ccc(O)cc3n2)cc1.Cl,-30.31
12,COc1ccc2c(=O)cc(C(Cl)(Cl)Cl)oc2c1,71.77
13,CSc1ccccc1C(=O)Nc1nc(-c2ccccn2)cs1,75.6
14,COc1ccc(-c2nc3cc(Cc4ccc5[nH]c(-c6ccc(OC)cc6)nc5c4)ccc3[nH]2)cc1,35.52
15,CCOC(=O)c1ccc2nc(-c3ccccc3)cc(O)c2c1,-8.454
16,Cc1cc(Nc2ccc(Cl)cc2)n2nc(C(F)(F)F)nc2n1,36.64
17,COc1ccc(C(C)=O)cc1N1C(=O)C2C(C1=O)C1(c3ccccc3)C(=O)C2(c2ccccc2)C(c2ccc(C)cc2)=C1c1ccc(C)cc1 (centres undefined),5.543
18,CCCCCCOC(=O)C1=C(C)NC(=O)NC1c1ccccc1F (centres undefined),-26.01
19,Cc1ccc(N2C3c4ccccc4N(S(=O)(=O)c4ccc(C)cc4)C2c2ccccc2N3S(=O)(=O)c2ccc(C)cc2)cc1,-51.15
20,CCCc1c(CC)c(=N)c2ccccc2n1C,-20.98
21,Cc1ccc(Nc2nc(NCCO)c3ccccc3n2)cc1C,34.33
22,CCOC(=O)c1cnc2c(C)cc(C)cc2c1Nc1ccc(OC)c(OC)c1,-30.02
23,COc1ccc(NC(=O)C2c3ccccc3C(=O)N(CC(C)C)C2c2cccs2)cc1 (centres undefined),0.02548
24,c1ccc(Cn2c(N=Nc3c(Nc4ccccc4)ccc4ccccc34)nc3ccccc32)cc1,2.817
